Earlier results on 1 compound are cited in US11491138B2, “Injectable psychoactive alkaloid composition and preparation thereof” (PSILO SCIENTIFIC LTD, priority 2020, dated 2022).

For data set [1] the following is noted: stated as known property.
The conditions of data set [2]: reason for composition pH of 4.5-5.5.

SMILES strings stand for the structures.

On to `CN(C)CCc1c[nH]c2cccc(O)c12` [psilocin], for which the isoelectric point in data set [1] was 8.47±0.25 pH. In addition, the “pH at which instability occurs” value in data set [2] is given as “over 5.5 pH”.
